Data published in ChEMBL document CHEMBL4715767, “Pterin-7-carboxamides as a new class of aldose reductase inhibitors” (Bioorg Med Chem Lett, 2016).

target: T1, Aldo-keto reductase family 1 member B1 (Homo sapiens, UniProt P15121); assay: Inhibition of recombinant human ALR2 using D,L-glyceraldehyde and NADPH as substrate preincubated for 3 mins followed by substrate addition and measured for 3 mins by spectrophotometric analysis; conditions: not given

IC50	SMILES
Nd(Insoluble)	Nc1nc2ncc(C(=O)O)nc2c(=O)[nH]1 [PTERIN-6-CARBOXYLIC ACID]

same assay, conditions: read-out: IC50

SMILES	IC50
Nc1nc2nc(C(=O)NCCCCC(=O)O)cnc2c(=O)[nH]1	11.7 µM
Nc1nc2nc(C(=O)O)cnc2c(=O)[nH]1	26.5 µM
Nc1nc2ncc(CNc3ccc(C(=O)N[C@@H](CCC(=O)O)C(=O)O)cc3)nc2c(=O)[nH]1 [FOLIC ACID]	52.5 µM
CC(C)[C@H](NC(=O)c1cnc2c(=O)[nH]c(N)nc2n1)C(=O)O	83.4 µM
Nc1nc2nc(C(=O)NCC(=O)O)cnc2c(=O)[nH]1	1.97 µM
CC(C)[C@@H](NC(=O)c1cnc2c(=O)[nH]c(N)nc2n1)C(=O)O	194 µM
Nc1nc2nc(C(=O)NCCCCCC(=O)O)cnc2c(=O)[nH]1	4.02 µM
CC[C@@H](C)[C@@H](NC(=O)c1cnc2c(=O)[nH]c(N)nc2n1)C(=O)O	278 µM
CC(C)C[C@@H](NC(=O)c1cnc2c(=O)[nH]c(N)nc2n1)C(=O)O	97.2 µM
Nc1nc2nc(C(=O)NCCCC(=O)O)cnc2c(=O)[nH]1	25.5 µM
Nc1nc2nc(C(=O)NCCC(=O)O)cnc2c(=O)[nH]1	17.5 µM
CC[C@H](C)[C@H](NC(=O)c1cnc2c(=O)[nH]c(N)nc2n1)C(=O)O	69 µM
C[C@H](NC(=O)c1cnc2c(=O)[nH]c(N)nc2n1)C(=O)O	12.4 µM
C[C@@H](NC(=O)c1cnc2c(=O)[nH]c(N)nc2n1)C(=O)O	72 µM

Next, values leading:

IC50	SMILES
56.6 µM	Nc1nc2nc(C(=O)N[C@@H](C(=O)O)c3ccccc3)cnc2c(=O)[nH]1
68.1 µM	Nc1nc2nc(C(=O)N[C@H](Cc3ccccc3)C(=O)O)cnc2c(=O)[nH]1
130 µM	Nc1nc2nc(C(=O)N[C@H](CO)C(=O)O)cnc2c(=O)[nH]1
42.6 µM	Nc1nc2nc(C(=O)N[C@H](C(=O)O)c3ccccc3)cnc2c(=O)[nH]1
25.1 µM	Nc1nc2nc(C(=O)N[C@@H](CCc3ccccc3)C(=O)O)cnc2c(=O)[nH]1
61.7 µM	CC(C)C[C@H](NC(=O)c1cnc2c(=O)[nH]c(N)nc2n1)C(=O)O
46 µM	Nc1nc2nc(C(=O)N[C@@H](Cc3ccccc3)C(=O)O)cnc2c(=O)[nH]1
216 µM	Nc1nc2nc(C(=O)N[C@@H](Cc3ccc(O)cc3)C(=O)O)cnc2c(=O)[nH]1
42.1 µM	Nc1nc2nc(C(=O)N[C@H](CCc3ccccc3)C(=O)O)cnc2c(=O)[nH]1
29.2 µM	Nc1nc2nc(C(=O)N[C@@H](CO)C(=O)O)cnc2c(=O)[nH]1
580 µM	Nc1nc2nc(C(=O)N[C@H](Cc3ccc(O)cc3)C(=O)O)cnc2c(=O)[nH]1

target: T1, Aldo-keto reductase family 1 member B1; assay: Inhibition of recombinant human ALR2 at 10.5 mM using D,L-glyceraldehyde and NADPH as substrate preincubated for 3 mins followed by substrate addition and measured for 3 mins by spectrophotometric analysis relative to control; conditions: time 6.0 min

inhibition	SMILES
9%	Nc1nc2nc(C(=O)NCC(=O)N[C@@H](Cc3ccccc3)C(=O)O)cnc2c(=O)[nH]1
